Experimental data reported in PMC6895199, “A new antiviral scaffold for human norovirus identified with computer-aided approaches on the viral polymerase” (Scientific Reports, 2019).

Columns and labels:
HuNoV (GII.4) RdRp [1] = target: HuNoV (GII.4) RdRp (Norovirus Hu/GII.4/Sydney/NSW0514/2012/AU, UniProt K4L8Z7); test: Quantitative fluorescent RdRp activity assay (PicoGreen, poly(C) template); format: biochemical, human norovirus Sydney 2012
Method: The newly synthesised compounds, including the carboxylate ester derivatives 34–35 and 7 from the Core Hopping approach, were evaluated for their enzymatic inhibition of human norovirus Sydney 2012 (HuNoV (GII.4)) RdRp activity in vitro, using a quantitative fluorescent assay. Compounds were tested at six different concentrations (concentration range examined: 0.1–100 µM) and compared to the relative activity of mock treated samples containing the vehicle only (0.5% DMSO [vol/vol]). PPNDS [Pyridoxal-5′-phosphate-6-(2′-naphthylazo-6′-nitro-4′,8′-disulfonate) tetrasodium salt], a previously reported potent inhibitor of NoV RdRp activity, and 1 were used as positive controls. Dose-dependent inhibitory response curves were used to establish IC50 values for the eight test compounds, as reported in Table 1 (see also Supplementary Fig. S1).
The newly prepared compounds 48–60 were initially evaluated against norovirus Sydney 2012 RdRp activity in vitro using a quantitative fluorescent assay. Compounds were tested at a fixed concentration of 20 µM and compared to the relative activity of mock treated samples. PPNDS and 1 were used as positive controls. […] These two rings are structural features present in 1 and in one of its derivatives we have previously reported. […] From these observations, the thiophene ring appears not to influence inhibitory activity. Derivatives in which the central core of 48 has been used to link the two terminal hydrophobic rings of 1 or of its derivatives we have previously reported[25] (55, 57, 58) appear to retain the RdRp inhibitory activity found for 48 (~20% at 20 µM). A similar effect is obtained when a sulfonyl group, as in our hit 1, is used to link ring 2, regardless if it is a thiazole (59) or an unsubstituted phenyl ring (60), to the rest of the molecule. […] Overall, even if showing a reduced biochemical activity in comparison with 1, some of the new derivatives can be considered as modest HuNoV RdRp inhibitors at 20 µM.
(§1) Fluorescent RdRp activity assays were carried out as previously described[12],[29]. Briefly, RdRp activity was quantified by monitoring the formation of double-stranded RNA (dsRNA) from a single stranded homopolymeric template, poly(C) (Sigma Aldrich), using the fluorescent dye PicoGreen (Life Technologies, Carlsbad, CA, USA). RdRp assays were performed in 384-well plates, and each reaction mixture contained 400 ng enzyme, 45 μM GTP, 10 ng/μL poly(C) RNA, 2.5 mM MnCl2, 5 mM dithiothreitol, (DTT), 0.01% bovine serum albumin (BSA), and 0.005% Tween 20 in 20 mM Tris-HCl, pH 7.5, with a final reaction volume of 25 μL. The PPNDS and compound 1 were used as a positive controls. RdRps were incubated for 10 mins at 30 °C in the presence of the test compounds or the compound vehicle DMSO (0.5% vol/vol) before addition into the reaction mixture, which was then allowed to run 15 min at 30 °C then terminated with 10 mM EDTA, followed by PicoGreen staining and dsRNA quantitation. GraphPad Prism V6.05 (La Jolla, CA, USA) was used to plot the IC50 values. A secondary gel-based polymerase activity assay was used as a counter-screen as described below, to exclude the possibility of RdRp activity enhancement. Primed elongation activity was examined in a gel-based assay as previously described[12],[29] using the RNA template (PE44-NoV). Gels were imaged using BioRad (Hercules, CA, U.SA) Geldoc Universal Hood II, running BioRad Image Lab software, V4.1, build 16.

HuNoV (GII.4) RdRp [2] = test: Counter-screen gel-shift assay of primed elongation activity (PE44-NoV template); format: biochemical, human norovirus; conditions: fixed concentration of 100 μM
Method: To further confirm RdRp inhibition and exclude any potential false positives from the first fluorescence RdRp assay, the eight molecules were then assessed using a gel-shift enzyme activity assay at a fixed concentration of 100 μM, following a procedure previously adopted by our research group.
Figure 5 A counter-screen gel-shift assay was used to confirm HuNoV (GII.4) RdRp inhibitory activity of compounds 2, 3, 34 and 35 (A), 4, 5, 6 (B) and 7 (C). The eight compounds were examined for inhibition of primed elongation activity. PE44-NoV RNA templates (32 nucleotides) were extended (44 nucleotides) by the RdRp in the absence of any test compounds (0.5% DMSO [vol/vol] negative control) or with test compounds at a fixed concentration of 100 μM. […] Full-length gels are presented in Supplementary Fig. S3.
as §1

MNV = MNV CPE reduction assay (MTS) in RAW 264.7 cells; format: cell-based, mouse norovirus (MNV-1.CW1); conditions: Norovirus, RAW264.7, in Mus musculus
Method: The newly prepared compounds 2–7 and 34–35 were evaluated for their antiviral effect against the genogroup V mouse norovirus (MNV) using the mouse macrophage cell line RAW264.7. This assay evaluates the ability of the compounds to protect infected cells from the virus-induced cytopathic effect, thus being suitable to identify inhibition of virus replication at every step of the virus life cycle, and representing a robust cellular assay available for the rapid evaluation of potential norovirus inhibitors. Compounds identified using MNV have shown effects against HuNoV in vitro and in vivo, as in the case of nucleoside RdRp inhibitor 2′-C-methylcytidine (2CMC)[34]–[36]. Unfortunately, despite not presenting the aqueous solubility issues we had previously encountered for 1[29], no significant antiviral effect could be observed in this assay for the new compounds up to the maximum concentration tested. The new structural modifications, despite retaining inhibition of the RdRp in an isolated enzyme activity assay and showing no cytotoxic effects at the test concentrations in the MNV antiviral assay (Supplementary Table S1), are correlated with a lack of antiviral activity. As these new structures present the same limitation of most non-nucleoside HuNoV polymerase inhibitors reported so far[22], we were prompted to apply a different computer-aided strategy to further modify the scaffold of 1, with the aim to achieve an antiviral effect in cellular systems. […]
Since the main scope of this work was to find new norovirus inhibitors which show antiviral effects against both the HuNoV RdRp and in norovirus-infected cells, priority was given to the evaluation of most of the new molecules for their antiviral activity against MNV in infected RAW cells. The nucleoside 2′-C-methylcytidine was used as positive control. The test compounds were evaluated at eight different concentrations (range 0.6–100 µM) and their ability to reduce the virus-induced cytopathic effect was assessed.
Cells and virus: MNV (virus strain MNV-1.CW1) was propagated in RAW 264.7 cells grown in DMEM (Life Technologies, Gent, Belgium) supplemented with 10% or 2% FBS, 2 mM L-glutamine, 20 mM HEPES, 0.075 g/L sodium bicarbonate, 1 mM sodium pyruvate, 100 U penicillin/mL and 100 µg/mL streptomycin at 37 °C in a humidified atmosphere of 5% CO2. The human norovirus GI.1 replicon harboring gastric tumor-1 cell line (HGT-NV) (kindly provided by Dr. Ian Goodfellow, University of Cambridge) was maintained in DMEM supplemented with 10% FBS, 2mM L-glutamine, 0.075 g/L sodium bicarbonate and 1.0 mg/ml of Geneticin (G418; Life Technologies), at 37 °C in a humidified atmosphere of 5% CO2[34].
Antiviral assay with MNV: The antiviral activity of the Compounds was determined using an MTS [3-(4,5-dimethylthiazol-2-yl)-5-(3-carboxymethoxyphenyl)-2-(4-sulfophenyl)-2H-tetrazolium]-based cytopathic effect (CPE) reduction assay. […] Then, a MTS-phenazinemethosulfate (MTS/PMS) stock solution [(2 mg/mL MTS (Promega, Leiden, The Netherlands) and 46 µg/mL PMS (Sigma–Aldrich, Bornem, Belgium) in PBS at pH 6–6.5)] was diluted 1/20 in MEM (Life Technologies, Gent, Belgium) and 75 µL were added to each well. After 2 h, the optical density (OD) was read at 498 nm. The %CPE reduction was calculated as [(ODtreated)MNV − ODVC]/[ODCC − ODVC] × 100, where ODCC represents the OD of the uninfected untreated cells, whereas ODVC and (ODtreated)MNV represent the OD of infected untreated cells and virus-infected cells treated with a compound concentration, respectively. The 50% effective concentration (EC50) was defined as the compound concentration that protected 50% of the cells from virus-induced CPE[34].

[3] = Cytotoxicity by the MTS method on uninfected cells; format: cell-based; conditions: mouse, uninfected RAW 264.7 cells
Method: Cytotoxicity: The cytotoxicity of the Compounds was evaluated by the MTS method, by exposing uninfected cells to the same concentrations of compounds for 3 days. The %cell viability was calculated as (ODtreated/ODCC) × 100, where ODCC is the OD of uninfected untreated cells and ODtreated are uninfected cells treated with compound. The CC50 was defined as the compound concentration that reduces the number of viable cells by 50%[34].

[4] = Crystal formation seen in the cell-based assays; format: physicochemical; conditions: MNV CPE reduction assay, Supplementary Table S1
[5] = Supplementary Table S1, at least two independent experiments

| Compound | inhibition at 100 µM (HuNoV (GII.4) RdRp [1]; 100 µM, read-out: inhibition of RdRp activity at the maximum concentration tested) [%] | inhibition of primed elongation activity (gel-shift) (HuNoV (GII.4) RdRp [2]) | EC50 (MNV; [5]) [µM] | CC50 at 3 days [3, 5] [µM] | IC50 (HuNoV (GII.4) RdRp [1]; HuNoV (GII.4) RdRp activity, six concentrations 0.1–100 µM, mean ± SD) [µM] | crystals noted in the assay [4] | inhibition at 20 µM (HuNoV (GII.4) RdRp [1]; 20 µM, read-out: inhibition of HuNoV RdRp activity at fixed concentration) [%] | EC50 (MNV; Table 2, RAW 264.7, range 0.6–100 µM, at least three independent experiments) [µM] | CC50 at 3 days ([3]; Table 2, at least three independent experiments) [µM] |
| --- | --- | --- | --- | --- | --- | --- | --- | --- | --- |
| O=C(Cc1cccc(-c2ccccc2)c1)Nc1ccc(S(=O)(=O)Nc2ccccc2)cc1 [Compound 7, 2-([1,1′-biphenyl]-3-yl)-N-(4-(N-phenylsulfamoyl)phenyl)acetamide] | 20 | did not demonstrate inhibition | > 12.5 | 20 ± 21 |  |  |  |  |  |
| CCOC(=O)c1ccc(N2NC(=O)/C(=C\c3ccc(-c4ccc(S(=O)(=O)Nc5ccccc5)cc4)o3)C2=O)cc1 [Compound 34, Ethyl(E)-4-(3,5-dioxo-4-((5-(4-(N-phenylsulfamoyl)phenyl)furan-2-yl)methylene)pyrazolidin-1-yl)benzoate] |  |  | > 100 | > 100 | 13.5 ± 5.8 | crystals |  |  |  |
| O=C(NC(=S)Nc1ccc(N2CCN(C(=O)c3ccco3)CC2)cc1)c1sc2ccccc2c1Cl [Compound 53, 3-Chloro-N-((4-(4-(furan-2-carbonyl)piperazin-1-yl)phenyl)carbamothioyl)benzo[b]thiophene-2-carboxamide] |  | significant inhibition |  |  |  |  | ≤ 60 | > 100 | 9.4 ± 2.3 |
